Results on two compounds are retold here after patent publication US20040023211A1, “System and method for optimizing drug theraphy for the treatment of diseases” (priority 2000, published 2004).

Data set [1] can be described thus: Amprenavir trough plasma concentration (Cmin, 12 hours after dosing) by LC-MS/MS in treatment-experienced patients. The class given is in vivo, adults infected with HIV-1. To be noted: amprenavir 1200 mg bid with abacavir, efavirenz and ritonavir or nelfinavir, 17 patients. The procedure: Patients were enrolled into three parallel treatment groups that included abacavir 300 mg bid, amprenavir 1200 mg bid, and efavirenz 600 mg daily with either low dose ritonavir at 200 mg BID, high dose ritonavir at 500 mg bid, or nelfinavir 1250 mg bid.
Genotyping (VircoGEN II™, VIRCO) and VIRTUAL PHENOTYPE™ were performed on baseline samples. Viral load data were collected at baseline (mean of two pre-therapy samples) and at week 24. Serial pharmacokinetic samples were collected over 12 hours after week 3 for ritonavir-boosted regimens and after week 2 for nelfinavir-boosted regimens.
Amprenavir concentrations in plasma were determined by a validated LC-MS/MS method.
For amprenavir, nelfinavir, and ritonavir, the concentration 12 hours after dosing was used as the Cmin. For each drug, relationships between viral load change at week 24 and the Cmin, fold-change in resistance, and NIQ were fit to a sigmoidal maximum effect model.

The next data set relates to HIV-1. The format is in vivo, adults infected with HIV-1. To be noted: change in viral load at week 24, sigmoidal Emax model, p<0.05.
A further data set concerns HIV. To be noted: cited from earlier work; for % of patients with viral load below 400 copies/mL at week 24: lopinavir plus efavirenz and 2 NRTIs, 56 patients.

Each structure is given as a SMILES string. Read-outs that look alike come from different tables or passages of the source.

Method for HIV-1: The normalized inhibitory quotient (NIQ) was determined as: [formula]
Where the IQ in an individual patient (IQpatient) was calculated as ratio of the patient's trough concentration (Cmin) to the susceptibility of the patient's virus to the drug, expressed as fold change compared to wild type virus (Virtual Phenotype). The IQpt was then related to the reference inhibitory quotient (IQref), in which the mean population trough concentration of the drug from the product label was divided by the cut-off value of the fold change for susceptible viruses.
For amprenavir, nelfinavir, and ritonavir, the concentration 12 hours after dosing was used as the Cmin. […]

For the compound `CC(C)CN(C[C@@H](O)[C@H](Cc1ccccc1)NC(=O)O[C@H]1CCOC1)S(=O)(=O)c1ccc(N)cc1` [Amprenavir, amprenavir], the “Cmin, range” value in data set [1] is “(264-3453) ng/ml”. The “correlation of NIQ with outcome at 24 weeks” value in the data set on HIV-1 is reported as “correlated with outcome at 24 weeks”.

For `Cc1cccc(C)c1OCC(=O)N[C@@H](Cc1ccccc1)[C@@H](O)C[C@H](Cc1ccccc1)NC(=O)[C@H](C(C)C)N1CCCNC1=O` [lopinavir], the entries for the “% of patients with viral load below 400 copies/mL at week 24” value in the data set on HIV (lopinavir IQ 4-15), with HIV (lopinavir IQ <4) and in the data set on HIV (lopinavir IQ >15) were 80%, 70% and 100%, respectively. The “correlation of trough concentration alone with virologic outcome” value in the data set with HIV (lopinavir trough concentration alone, week 24) is given as “no correlation with virologic outcome was found”.
